These results are taken from PubChem BioAssay AID248 (DTP/NCI, 2004).

The subject of this test is L1210 leukemia ip in BDF1 mice, survival T/C. Description: NCI In Vivo Anticancer Drug Screen. Data for tumor model L1210 Leukemia (intraperitoneal) in B6D2F1 (BDF1) mice. The following applies: endpoint: mean survival time, higher = longer survival. A digest of the protocol: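 Each compound was tested against a transplantable tumor grown in mice. The endpoint was survival, with treated animals benchmarked against vehicle controls as a simple ratio.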

[1] abbreviates: dose: 100.0 mg/kg/injection, schedule: Q01DX009 (ip), vehicle: saline with Tween-80.
Setting [2] is: dose: 100.0 mg/kg/injection, schedule: Q01DX001 (ip), vehicle: saline.
Where [3] appears, read: dose: 200.0 mg/kg/injection, schedule: Q01DX001 (ip), vehicle: saline.
Setting [4] is: dose: 100.0 mg/kg/injection, schedule: Q04DX003 (ip), vehicle: Klucel (hydroxypropylcellulose) (HPC).
Where [5] appears, read: dose: 200.0 mg/kg/injection, schedule: Q04DX003 (ip), vehicle: Klucel (hydroxypropylcellulose) (HPC).
The mark [6] stands for this setting: dose: 400.0 mg/kg/injection, schedule: Q04DX003 (ip), vehicle: Klucel (hydroxypropylcellulose) (HPC).
Setting [7] is: dose: 50.0 mg/kg/injection, schedule: Q01DX001 (ip), vehicle: carboxymethylcellulose (CMC).
Setting [8] is: dose: 100.0 mg/kg/injection, schedule: Q01DX001 (ip), vehicle: carboxymethylcellulose (CMC).
Setting [9] is: dose: 50.0 mg/kg/injection, schedule: Q01DX009 (ip), vehicle: saline with Tween-80.
Where [10] appears, read: dose: 400.0 mg/kg/injection, schedule: Q01DX001 (ip), vehicle: saline.
Where [11] appears, read: dose: 75.0 mg/kg/injection, schedule: Q01DX001 (ip), vehicle: saline.

Where “and” joins values, the source holds several entries; their conditions need not be identical. Equal values may be shown once. Toxic doses and inconclusive results are not listed.

On to `CCc1c2cc(OC)c(OC)cc2cc2c3cc(OC)c(OC)cc3cc[n+]12` (tested in a mixture with another compound), for which the T/C was 116 % of control (dose: 25.0 mg/kg/injection, schedule: Q01DX009 (ip), vehicle: saline); 123 % of control (dose: 50.0 mg/kg/injection, schedule: Q01DX009 (ip), vehicle: saline); 150 % of control (dose: 66.0 mg/kg/injection, schedule: Q01DX009 (ip), vehicle: saline with Tween-80); 121 % of control (dose: 88.0 mg/kg/injection, schedule: Q04DX003 (ip), vehicle: saline); 160 % of control under setting [1]; 156 % of control (dose: 150.0 mg/kg/injection, schedule: Q01DX009 (ip), vehicle: saline with Tween-80). The T/C is 89 % of control (dose: 200.0 mg/kg/injection, schedule: Q01DX009 (ip), vehicle: saline) and 107 % of control (dose: 300.0 mg/kg/injection, schedule: Q04DX003 (ip), vehicle: saline).

Consider `CCCCCCCCCCCCNNC(=O)OCCO`, for which the T/C under setting [2] was 101 % of control and the T/C under setting [3] is 93 % of control.

With `CC(=O)CC(=O)Nc1ccccn1`, the T/C runs as follows: under setting [4], 97 % of control; under setting [5], 101 % of control; under setting [6], 98 % of control.

For the compound `COC(=O)c1cccc2cn3ccc4c5ccccc5nc-4c3cc12`, the T/C is, setting by setting: (dose: 25.0 mg/kg/injection, schedule: Q01DX001 (ip), vehicle: saline with Tween-80) 98 % of control; (dose: 50.0 mg/kg/injection, schedule: Q01DX001 (ip), vehicle: saline with Tween-80) 92 % of control; (dose: 100.0 mg/kg/injection, schedule: Q01DX001 (ip), vehicle: saline with Tween-80) 95 % of control and 92 % of control; (dose: 400.0 mg/kg/injection, schedule: Q01DX001 (ip), vehicle: saline with Tween-80) 92 % of control.

Consider `ClCc1cccc2c(CCl)cccc12`, for which the T/C runs as follows: (dose: 50.0 mg/kg/injection, schedule: Q01DX001 (ip), vehicle: saline) 101 % of control; under setting [2], 101 % of control.

Take `CCN(CC)C(=S)[S][Sb]([c]1ccccc1)[c]1ccccc1`: the T/C (dose: 100.0 mg/kg/injection, schedule: Q01DX001 (ip), vehicle: steriod suspending solution) is 110 % of control.

As to `O=C1C=CC(=O)C1`, the T/C is 111 % of control (dose: 2.25 mg/kg/injection, schedule: Q01DX009 (ip), vehicle: saline); 97 % of control (dose: 2.25 mg/kg/injection, schedule: Q04DX003 (ip), vehicle: saline); 106 % of control (dose: 4.5 mg/kg/injection, schedule: Q01DX009 (ip), vehicle: saline); 98 % of control (dose: 4.5 mg/kg/injection, schedule: Q04DX003 (ip), vehicle: saline); 96 % of control (dose: 9.0 mg/kg/injection, schedule: Q04DX003 (ip), vehicle: saline).

For `CCOCC1c2ccccc2CCN1Cc1c[nH]c2ccccc12` (centres undefined), the T/C reads like this: under setting [7], 97 % of control; under setting [8], 89 % of control; (dose: 200.0 mg/kg/injection, schedule: Q01DX001 (ip), vehicle: carboxymethylcellulose (CMC)) 90 % of control.

In the case of `Cc1cc(OCCOC(=O)Nc2ccc(C)c([N+](=O)[O-])c2)ccc1Cl`, the T/C reads like this: under setting [9], 93 % of control; under setting [1], 87 % of control; (dose: 200.0 mg/kg/injection, schedule: Q01DX009 (ip), vehicle: saline with Tween-80) 87 % of control.

`Oc1c(Cl)cc(Cl)c2cccnc12`: the T/C is, setting by setting: (dose: 12.5 mg/kg/injection, schedule: Q01DX009 (ip), vehicle: saline with Tween-80) 92 % of control; (dose: 25.0 mg/kg/injection, schedule: Q01DX009 (ip), vehicle: saline with Tween-80) 90 % of control; under setting [7], 98 % of control; under setting [9], 92 % of control; under setting [8], 91 % of control; under setting [1], 94 % of control.

As to `O=C1NC(=O)C(c2ccc(Cl)cc2)(c2ccccc2Cl)N1` (centres undefined), the T/C under setting [4] is 95 % of control, the T/C under setting [5] was 102 % of control and the T/C under setting [6] was 98 % of control.

`O=C(Nc1ccc([N+](=O)[O-])cc1)N(c1ccccc1)c1cc(N2CCOCC2)ccn1`: the T/C is 91 % of control under setting [2], 91 % of control under setting [3] and 88 % of control under setting [10].

With `Cc1ccc(C(CCC#N)OC(C)C)cc1` (centres undefined), the T/C is 95 % of control (dose: 100.0 mg/kg/injection, schedule: Q01DX009 (ip), vehicle: Klucel (hydroxypropylcellulose) (HPC)); 96 % of control under setting [4]; 92 % of control (dose: 200.0 mg/kg/injection, schedule: Q01DX009 (ip), vehicle: Klucel (hydroxypropylcellulose) (HPC)); 101 % of control under setting [5]; 97 % of control (dose: 400.0 mg/kg/injection, schedule: Q01DX009 (ip), vehicle: Klucel (hydroxypropylcellulose) (HPC)); 92 % of control under setting [6].

As to `O/N=C(\c1ccccc1)C(c1ccccc1)C(Cl)(Cl)Cl` (centres undefined), the T/C (dose: 100.0 mg/kg/injection, schedule: Q04DX003 (ip), vehicle: saline with Tween-80) is 86 % of control; the T/C (dose: 200.0 mg/kg/injection, schedule: Q04DX003 (ip), vehicle: saline with Tween-80) is 88 % of control; the T/C (dose: 400.0 mg/kg/injection, schedule: Q04DX003 (ip), vehicle: saline with Tween-80) is 88 % of control.

`Oc1c(Br)cc(C(c2cc(Br)c(O)c(Br)c2)c2ccccn2)cc1Br`: the T/C is 104 % of control under setting [4], 100 % of control under setting [5] and 104 % of control under setting [6].

For `CC[P+](c1ccccc1)(c1ccccc1)c1ccccc1`, the T/C is 100 % of control (dose: 0.62 mg/kg/injection, schedule: Q01DX009 (ip), vehicle: saline); 100 % of control (dose: 0.62 mg/kg/injection, schedule: Q04DX003 (ip), vehicle: saline); 100 % of control (dose: 1.25 mg/kg/injection, schedule: Q01DX009 (ip), vehicle: saline); 97 % of control (dose: 1.25 mg/kg/injection, schedule: Q04DX003 (ip), vehicle: saline); 100 % of control (dose: 2.5 mg/kg/injection, schedule: Q01DX009 (ip), vehicle: saline); 97 % of control (dose: 2.5 mg/kg/injection, schedule: Q04DX003 (ip), vehicle: saline).

With `Nc1ncnc2c1nc1n2C2OC(CO)C(O)C2O1` (centres undefined), the T/C is 111 % of control under setting [2], 109 % of control under setting [3] and 111 % of control under setting [10].

As to `NC(CSc1ccc(Cl)cc1)C(=O)O` (centres undefined), the T/C is, setting by setting: (dose: 100.0 mg/kg/injection, schedule: Q04DX003 (sc), vehicle: steriod suspending solution) 86 % of control; (dose: 200.0 mg/kg/injection, schedule: Q04DX003 (sc), vehicle: steriod suspending solution) 86 % of control; (dose: 400.0 mg/kg/injection, schedule: Q04DX003 (sc), vehicle: steriod suspending solution) 92 % of control.

With `CCCC(CCC)NCCOC(=O)C(CC)c1ccccc1` (centres undefined), the T/C under setting [11] was 94 % of control.

As for `CC1CCC(C2=CSC3CCCCC3N2)C(C)C1` (centres undefined), the T/C is 111 % of control (dose: 100.0 mg/kg/injection, schedule: Q04DX002 (ip), vehicle: other); 101 % of control (dose: 200.0 mg/kg/injection, schedule: Q04DX002 (ip), vehicle: other); 97 % of control (dose: 400.0 mg/kg/injection, schedule: Q04DX002 (ip), vehicle: other).

Turning to `COC(=O)c1[nH]c(=O)[nH]c(=O)c1[N+](=O)[O-]`, the T/C reads like this: under setting [11], 106 % of control; (dose: 150.0 mg/kg/injection, schedule: Q01DX001 (ip), vehicle: saline) 93 % of control; (dose: 300.0 mg/kg/injection, schedule: Q01DX001 (ip), vehicle: saline) 93 % of control.
